Data on 6 compounds can be found in ChEMBL document CHEMBL1142390, “A set of phosphatase-inert "molecular rulers" to probe for bivalent mannose 6-phosphate ligand-receptor interactions” (Bioorg Med Chem Lett, 2008).

Structures are written as SMILES. Some results are limits rather than exact numbers.

For test [1], the target named is Cation-independent mannose-6-phosphate receptor (Bos taurus) (UniProt P08169). In words: Displacement of pentamannosyl phosphate bovine serum albumin from M6P/IGF2R relative to M6P.
For test [2] the target is unchanged. In words: Displacement of pentamannosyl phosphate bovine serum albumin from M6P/IGF2R.

Chain of Cation-independent mannose-6-phosphate receptor (Bos taurus) (P08169 whole entry, looked up): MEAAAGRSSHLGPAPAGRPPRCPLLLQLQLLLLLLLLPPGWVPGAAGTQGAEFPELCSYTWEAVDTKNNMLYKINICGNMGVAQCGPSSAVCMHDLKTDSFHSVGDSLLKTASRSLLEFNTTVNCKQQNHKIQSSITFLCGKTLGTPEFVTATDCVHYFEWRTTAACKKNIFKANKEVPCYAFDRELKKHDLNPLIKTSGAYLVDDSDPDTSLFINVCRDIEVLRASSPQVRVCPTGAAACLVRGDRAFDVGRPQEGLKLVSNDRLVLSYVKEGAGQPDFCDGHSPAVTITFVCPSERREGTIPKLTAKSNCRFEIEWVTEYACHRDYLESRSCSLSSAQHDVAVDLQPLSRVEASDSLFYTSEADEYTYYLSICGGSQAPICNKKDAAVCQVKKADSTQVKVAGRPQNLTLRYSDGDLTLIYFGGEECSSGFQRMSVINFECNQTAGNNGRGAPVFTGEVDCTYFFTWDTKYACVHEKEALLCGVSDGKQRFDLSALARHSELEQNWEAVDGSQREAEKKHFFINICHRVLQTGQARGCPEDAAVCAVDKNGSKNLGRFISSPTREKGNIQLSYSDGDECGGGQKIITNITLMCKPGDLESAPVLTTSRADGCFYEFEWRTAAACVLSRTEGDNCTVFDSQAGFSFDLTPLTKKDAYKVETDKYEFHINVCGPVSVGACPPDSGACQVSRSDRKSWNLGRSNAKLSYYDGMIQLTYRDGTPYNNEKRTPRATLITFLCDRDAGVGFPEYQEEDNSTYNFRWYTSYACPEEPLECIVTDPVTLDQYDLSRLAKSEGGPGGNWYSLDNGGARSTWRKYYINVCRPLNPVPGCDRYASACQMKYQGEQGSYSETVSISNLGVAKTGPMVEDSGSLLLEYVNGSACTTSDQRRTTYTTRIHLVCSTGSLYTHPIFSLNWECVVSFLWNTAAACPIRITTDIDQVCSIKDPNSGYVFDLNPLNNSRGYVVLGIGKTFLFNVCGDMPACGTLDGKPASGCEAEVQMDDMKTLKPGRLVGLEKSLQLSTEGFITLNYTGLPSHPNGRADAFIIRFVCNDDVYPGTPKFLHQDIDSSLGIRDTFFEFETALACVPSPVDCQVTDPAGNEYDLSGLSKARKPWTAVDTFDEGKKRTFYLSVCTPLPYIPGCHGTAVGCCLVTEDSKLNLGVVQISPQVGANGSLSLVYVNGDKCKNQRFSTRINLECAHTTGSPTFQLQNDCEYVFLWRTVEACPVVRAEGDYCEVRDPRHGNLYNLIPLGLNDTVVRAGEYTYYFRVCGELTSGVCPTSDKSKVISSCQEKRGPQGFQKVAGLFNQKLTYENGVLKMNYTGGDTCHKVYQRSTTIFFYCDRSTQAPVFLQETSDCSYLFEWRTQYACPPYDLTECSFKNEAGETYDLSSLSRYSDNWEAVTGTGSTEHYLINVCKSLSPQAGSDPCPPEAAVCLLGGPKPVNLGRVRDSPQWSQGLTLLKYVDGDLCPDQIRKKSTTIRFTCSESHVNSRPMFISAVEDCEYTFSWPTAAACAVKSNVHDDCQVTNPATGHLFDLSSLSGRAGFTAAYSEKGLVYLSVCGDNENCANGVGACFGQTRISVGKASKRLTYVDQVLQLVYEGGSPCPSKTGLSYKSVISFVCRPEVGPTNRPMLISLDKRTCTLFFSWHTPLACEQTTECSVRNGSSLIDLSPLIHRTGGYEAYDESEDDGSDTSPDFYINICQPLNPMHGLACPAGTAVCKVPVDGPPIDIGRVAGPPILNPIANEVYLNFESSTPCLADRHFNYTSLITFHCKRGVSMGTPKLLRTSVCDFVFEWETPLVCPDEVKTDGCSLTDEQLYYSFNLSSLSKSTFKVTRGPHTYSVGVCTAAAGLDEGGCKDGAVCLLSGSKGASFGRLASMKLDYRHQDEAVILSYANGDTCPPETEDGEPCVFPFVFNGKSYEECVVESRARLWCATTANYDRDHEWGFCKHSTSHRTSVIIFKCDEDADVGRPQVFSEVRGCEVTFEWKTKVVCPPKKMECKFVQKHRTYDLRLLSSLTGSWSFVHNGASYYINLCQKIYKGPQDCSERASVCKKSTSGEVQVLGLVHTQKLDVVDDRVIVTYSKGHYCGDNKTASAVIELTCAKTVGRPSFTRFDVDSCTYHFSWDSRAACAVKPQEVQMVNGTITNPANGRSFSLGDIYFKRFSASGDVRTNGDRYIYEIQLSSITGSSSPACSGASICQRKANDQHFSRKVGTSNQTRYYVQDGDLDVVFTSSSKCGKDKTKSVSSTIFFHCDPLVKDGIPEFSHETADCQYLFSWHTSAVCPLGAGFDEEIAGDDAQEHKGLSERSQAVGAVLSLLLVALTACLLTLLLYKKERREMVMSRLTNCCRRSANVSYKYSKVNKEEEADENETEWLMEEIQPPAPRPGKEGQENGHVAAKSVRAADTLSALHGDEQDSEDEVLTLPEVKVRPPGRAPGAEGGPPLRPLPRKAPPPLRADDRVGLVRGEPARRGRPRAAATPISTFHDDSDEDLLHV

The term IC50 denotes the concentration that inhibits the measured activity by half. A higher IC50 goes with lower potency. Compound `CC(=O)N[C@H](C(=O)N[C@@H](CCCCNC(=O)c1ccccc1N)C(=O)N[C@H](C(N)=O)[C@@H](C)O[C@H]1O[C@H](CO)[C@@H](O)[C@H](O)[C@@H]1O[C@H]1O[C@H](COP(=O)(O)O)[C@@H](O)[C@H](O)[C@@H]1O)[C@@H](C)O[C@H]1O[C@H](CO)[C@@H](O)[C@H](O)[C@@H]1O[C@H]1O[C@H](COP(=O)(O)O)[C@@H](O)[C@H](O)[C@@H]1O` displayed a relative binding affinity (RBA) in test [1] of 2890. The same compound yielded an IC50 in test [2] of 0.09 µM.

Take `CC(=O)N[C@H](C(=O)N[C@@H](CCCCN)C(=O)N[C@H](C(N)=O)[C@@H](C)O[C@H]1O[C@H](CO)[C@@H](O)[C@H](O)[C@@H]1O[C@H]1O[C@H](COP(=O)(O)O)[C@@H](O)[C@H](O)[C@@H]1O)[C@@H](C)O[C@H]1O[C@H](CO)[C@@H](O)[C@H](O)[C@@H]1O[C@H]1O[C@H](COP(=O)(O)O)[C@@H](O)[C@H](O)[C@@H]1O`: the relative binding affinity (RBA) in test [1] was found to be 13. In test [2], this compound displayed an IC50 of 20 µM.

Consider `O=P(O)(O)OC[C@H]1O[C@@H](O)[C@H](O)[C@@H](O)[C@@H]1O`, for which the IC50 in test [2] was > 10 µM.

In test [1], `O=P(O)(O)OC[C@H]1O[C@H](OCCCCCCCCCCCCO[C@H]2O[C@H](COP(=O)(O)O)[C@@H](O)[C@H](O)[C@@H]2O)[C@@H](O)[C@@H](O)[C@@H]1O` yielded a relative binding affinity (RBA) of 3.02. The compound further yielded an IC50 in test [2] of 3.7 µM.

Consider `CC(=O)NCCCC[C@H](NC(=O)[C@@H](NC(C)=O)[C@@H](C)O[C@H]1O[C@H](CO)[C@@H](O)[C@H](O)[C@@H]1O[C@H]1O[C@H](COP(=O)(O)O)[C@@H](O)[C@H](O)[C@@H]1O)C(=O)N[C@H](C(N)=O)[C@@H](C)O[C@H]1O[C@H](CO)[C@@H](O)[C@H](O)[C@@H]1O[C@H]1O[C@H](COP(=O)(O)O)[C@@H](O)[C@H](O)[C@@H]1O`, for which the relative binding affinity (RBA) in test [1] is 144. For the same compound, the IC50 in test [2] amounted to 1.8 µM.

Take `O=P(O)(O)OC[C@H]1OC(O)[C@@H](O)[C@@H](O)[C@@H]1O` (stereo not given in full): in test [2], the IC50 was determined as 11.5 µM.
